The text below walks through data of a melting point compilation (Tetko et al.; mined from patent text by program, amines drawn as free bases though some values may be those of a salt).

As usually defined, the melting point is the temperature, or range, at which the solid turns liquid.

The structures appear in SMILES notation.

`O=C(NCCN1CCC(Oc2ccc(Cl)c(Cl)c2)CC1)c1nnc(Nc2ccccc2Cl)o1` had a melting point of 161 to 162 °C.
Regarding `Cc1ccc(S(=O)(=O)N2CC=CC2)cc1`, the melting point fell in the range of 123 to 124 °C.
Take `CNc1ccc2c(c1)nc(CCc1ccc(C#N)cc1)n2C`: the melting point lay within 155 to 158 °C.
Regarding `C=CC[C@@H]1CCC(=O)C[C@H]1c1ccc(OCc2ccccc2)cc1OCc1ccccc1` (relative stereo), the melting point is 104 to 106 °C.
As for `Cc1nccc(N2CCC(O)(CN3CCN(C(=O)c4ccc(F)cc4)CC3)CC2)n1`, the figure is 114 to 117 °C.
`CCCOc1cc(-c2c(C(=O)OCC)c(Cn3cncn3)nc3cc(OC)c(OC)cc23)ccc1OC` displayed a melting point of 127 to 128 °C.
As for `CCOC(=O)NC(=O)P(=O)(OCC)OCC`, the figure is 57 to 64 °C; as for `O=C(Nc1ccc(S(=O)(=O)F)cc1)c1cc(Cl)ccc1[N+](=O)[O-]`, 182 to 184 °C.
As for `N#Cc1ccccc1CSc1nc2cnccc2[nH]1`, the figure is 200 to 202 °C.
The molecule `CNC(=S)NS(=O)(=O)c1cc(CCNC(=O)/C=C/c2cccs2)ccc1OCCOC` yielded a melting point of 140 °C.
Regarding `COc1cc(NCC(O)CO)c([N+](=O)[O-])cc1O` (stereo not drawn), the melting point was determined as 180 °C.
As for `CN1CCN(c2cccc3c2C[C@H](NS(C)(=O)=O)CC3)CC1`, the figure is 135 to 137 °C; as for `Cc1noc(NS(=O)(=O)c2ccsc2C(=O)Nc2cc3c(cc2C#N)OCO3)c1Cl`, 167 to 168 °C.
The molecule `COC(=O)Nc1nc2cc(SCC3(C)CC3(Cl)Cl)ccc2[nH]1` (stereo not drawn) returned a melting point of 175 to 178 °C.
As to `COc1ccc(N2CCc3c(C)nc4c(OC)cccc4c32)c(C)c1`, the melting point was in the range of 163 to 167 °C.
Molecule `COc1ccc(-c2cccc3c2/C(=C/c2ccc[nH]2)C(=O)N3)cc1` came in with a melting point of 222 to 223 °C.
`CCCCCCCCCCCC(=O)NCc1ccsc1` yielded a melting point of 83 to 84 °C.
`CN1CCC(Nc2ccccc2C(=O)c2ccccc2Cl)CC1` had a melting point of 128 to 129 °C.
For the molecule `O=C1COC(C#CC2CC2)(C(F)(F)F)c2cc(Cl)ccc2N1` (stereo not drawn), the melting point amounted to 200 °C.
Consider `CC(C)(C)c1ccc(C2(O)CN(C(c3ccccc3)c3ccccc3)C2)cc1`, for which the melting point fell in the range of 168 to 169 °C.
For the molecule `CN1c2ccccc2[C@H]2Cc3ccccc3[C@H]21` (relative stereo), the melting point was in the range of 76 to 77 °C.
For `CC1=C(O)C(=O)C(C)(CO)O1` (stereo not drawn), the melting point fell in the range of 124 to 125 °C.
The molecule `CCc1nc(OC)c(NC(=O)N2CCN(c3cccc(F)c3)CC2)cc1C(=O)Nc1cc(CO)cc(Nc2c3ccccc3nc3ccccc23)c1` came in with a melting point of 186 to 188 °C.
On to `O=C(Nc1ccc(Oc2ccnc(N3CCCC(O)C3)n2)c2ccccc12)c1cc(F)cc(N2CCCCC2)c1` (stereo not drawn), for which the melting point lay in the range of 93 to 95 °C.
`CC(C)(C)c1ccc(N2CCCN(c3cc[nH]c(=S)c3C#N)CC2)cc1` showed a melting point of 257 to 258 °C.
As for `CCCCCCCCCCCCCCCCC(C)(C)C(=O)O`, the figure is 50 to 53 °C.
As for `O=c1[nH]c2cc(C(F)(F)F)cc(Br)c2[nH]c1=NO`, the melting point was 221 to 223 °C.
Turning to `CN(C)c1ccc(NC(=O)N(Cc2ccccc2)C[C@H]2CCC[C@H](CN(Cc3ccccc3)C(=O)Nc3ccc(N(C)C)cc3)C2)cc1` (relative stereo), the melting point was in the range of 129 to 133 °C.
Consider `O=C(O)[C@@H]1C[C@H]1c1ccc([N+](=O)[O-])cc1` (relative stereo), for which the melting point fell in the range of 195 to 196 °C.
Turning to `CCOC(=O)c1sc(C)nc1O`, the melting point was 104 °C.
`O=C1c2ccccc2S(=O)(=O)N1CCCCBr` had a melting point of 72 °C.
`CC1CCC2(OC1)OC1CC3C4CCC5CC(OCCO)CCC5(C)C4CCC3(C)C1C2C` (stereo not drawn): the melting point lay in the range of 207 to 208 °C.
As for `CC(CCCc1ccccc1)(C(=O)O)c1ccc(CCCNC(=O)c2ccc(-c3ccccn3)cc2)cc1` (stereo not drawn), the figure is 118 to 119 °C; as for `Cc1cccc(Cl)c1NC1=NCCN1`, 112 to 114 °C.
`Cc1ccccc1-c1cc(-n2cncn2)ncc1C(=O)N(C)Cc1cc(C(F)(F)F)cc(C(F)(F)F)c1` came in with a melting point of 91 to 93 °C.
As for `O=C(O)c1ccc2cc(-c3ccc(CC(O)CO)c(C45CC6CC(CC(C6)C4)C5)c3)ccc2c1` (stereo not drawn), the figure is 258 °C; as for `O=C(O)c1ccc(Cc2ccc(-c3ccccc3-c3nnn[nH]3)cc2)c2[nH]c(OCC(F)(F)F)nc12`, 204 to 206 °C.
`O[C@@H](c1n[nH]cc1-c1ccccc1)[C@H](CCN1CCC(O)(c2ccccc2)CC1)c1ccc(Cl)c(Cl)c1` (racemic) had a melting point of 122 to 124 °C.
As for `CCOC(=O)C(C)(C)Oc1ccc(C=Cc2ccccc2)cc1`, the figure is 55 to 65 °C; as for `CC(C)c1cc(C(=O)CI)cc(C(C)C)c1O`, 127 to 128 °C.
As for `Nc1ccc(C(=O)NO)c(O)c1`, the figure is 180 to 181 °C; as for `CC(CCl)OC(=O)Nc1ccc([N+](=O)[O-])cc1Cl` (stereo not drawn), 101 to 103 °C.
As for `CCOC(=O)c1cccc(C2COc3c(ccc(O)c3C)C2)c1` (stereo not drawn), the figure is 143 to 144 °C; as for `CC(C)(C#N)c1ccc(C(=O)c2cccs2)cc1`, 139 °C; as for `COc1cc(OC)nc(NC(=O)NS(=O)(=O)Nc2nc(OC)cc(OC)n2)n1`, 210 °C.
With `CCOC(=O)C1(C(=O)OCC)CC(c2ccccc2[N+](=O)[O-])C(O)N1C=O` (stereo not drawn), the melting point was in the range of 109 to 111 °C.
`CN(C)CCCC1(O)c2ccccc2CCc2c(C3(C)OCCO3)cccc21` (stereo not drawn) showed a melting point of 122 to 124 °C.
`O=C1CCC(N2Cc3c(OCc4ccc(CN5CCN(c6ccccn6)C(=O)C5)cc4)cccc3C2=O)C(=O)N1` (stereo not drawn): the melting point was 224 to 226 °C.
`CNC(=O)C(Cc1ccc(OC)cc1)NC(=O)C(CC(C)C)C(S)CC(=O)OCc1ccccc1` (stereo not drawn) had a melting point of 133 to 135 °C.
Molecule `Cc1c(N)c(C)c(C(C)C)c2c1CC(C)(CN1CCC(c3ccccc3)CC1)O2` (stereo not drawn) returned a melting point of 128 to 131 °C.
As to `CN(C)c1ccc(I)nn1`, the melting point amounted to 135 °C.
In turn, `CN(C)C1(C#N)CCCCC1` registered a melting point of 36 °C.
Take `COc1ccc2c(c1)Sc1c(cc(OC)c(O)c1Br)N2C(=O)OC(C)OC(=O)C(C)(C)C` (stereo not drawn): the melting point is 85 °C.
As for `O=Cc1ccc(NC(=O)c2cc(F)cc(N3CCOCC3)c2)c2ccccc12`, the figure is 204 to 205 °C; as for `O=CNC1=NN(c2ccccn2)CC1`, 182 to 183 °C; as for `CCOC(=O)NCC(=O)NNC1=NC(C)C(c2ccccc2)=NN1` (stereo not drawn), 144 to 146 °C.
As for `COc1cccc(NC=C2C(=O)OC(C)(C)OC2=O)c1`, the figure is 108 °C; as for `CCOC(=O)c1cn(C2CC2)c2c(C)c(F)c(F)c([N+](=O)[O-])c2c1=O`, 260 to 263 °C; as for `CCCc1c2c(c(O)c3c(=O)cc(C(=O)O)oc13)C(O)CCC2` (stereo not drawn), 245 to 249 °C.
In turn, `CCC1=C(c2ccccc2)C(c2ccccc2)=C(CC)C1=C(C#N)C#N` showed a melting point of 154 to 156 °C.
With `CC(=O)Oc1ccc(NC(=O)c2ccc(Sc3cc4c(cc3C)C(C)(C)CCC4(C)C)cc2)cc1`, the melting point fell in the range of 186 to 187 °C.
Molecule `Cc1noc(C)c1S(=O)(=O)N(C)c1ccc(Cl)cc1[N+](=O)[O-]` came in with a melting point of 99 to 101 °C.
Molecule `NS(=O)(=O)c1ccc(-c2c(COCCCO)n[nH]c2-c2ccc(Cl)cc2)cc1` had a melting point of 96 °C.
As for `CC1=C(Cc2ncc[nH]2)CCc2ccccc21`, the figure is 209 to 211 °C.
As for `COC(=O)C1CSC(c2cc3ccccc3[nH]2)=N1` (stereo not drawn), the figure is 141 to 142 °C.
Molecule `O=C(Nc1cccc2[nH]ccc12)c1ccccc1OCCCCl` yielded a melting point of 140 °C.
Molecule `O=c1c2c(nc3c(O)cccn13)CCC2` came in with a melting point of 136 to 142 °C.
Molecule `COc1ccc2cc([C@H](C)C(=O)OCC(=O)N(C)CCO[N+](=O)[O-])ccc2c1` gave a melting point of 80 to 81 °C.
For the molecule `Cc1c(NC(=O)c2ccc(OCc3ccccc3)cc2)ccc2cc(CN3CCCCC3)cnc12`, the melting point was in the range of 186 to 187 °C.
Take `O=C1NC(=O)C2(c3ccc4ncccc4n3)C=CC=CC12` (stereo not drawn): the melting point was found to be 206 °C.
Take `Cc1nccn1CCCc1ccc(OCc2coc(/C=C/c3ccccc3)n2)cc1`: the melting point was 93 to 94 °C.
With `CC(=O)NC(n1ccnc1)C(Cl)(Cl)CCl` (stereo not drawn), the melting point was 151 to 154 °C.
Regarding `O=C1c2ccccc2COc2cc(C=NO)ccc21`, the melting point is 170 to 172 °C.
As for `CC1CCN(Cc2ccccc2)C1=Nc1ccccc1N1CCOCC1` (stereo not drawn), the figure is 96 to 97 °C; as for `CCC(=O)Oc1ccc(/C(=C(/CC)c2ccccc2)c2ccc(/C=C/C(=O)O)cc2)cc1`, 158 to 160 °C; as for `O=C(NC1CCC(CCN2CCC(c3cccc4c3CCO4)CC2)CC1)C1CCCO1` (racemic), 160 °C.
For the molecule `O=C(O)Cc1ccccc1OCc1ccc(OCc2csc(-c3ccccc3)n2)cc1`, the melting point lay in the range of 115 to 116 °C.
As to `O=C(c1ccccc1)c1ccc2nc(C(F)(F)F)c(Br)nc2c1`, the melting point was 152 to 154 °C.
`CC(C)(C)OC(=O)NCCc1ccc(Oc2c(Cl)cnc(C(F)(F)F)c2Cl)cc1` registered a melting point of 137 to 140 °C.
As for `Cc1ccc2c(c1)C(=O)C(CC=O)C2` (racemic), the figure is 53 to 54 °C; as for `CN1C(=O)CC[C@]2(C)c3ccc(NC(=O)c4ccc([N+](=O)[O-])cc4)cc3CC[C@@H]12`, 269 to 270 °C.
For `CC(C)(C)Sc1cccc(CCC(O)c2ccccc2)c1NC(=O)CC1c2ccccc2Oc2ccccc21` (stereo not drawn), the melting point fell in the range of 145 to 147 °C.
As to `Cc1cccc(C)c1-n1cnc(OC(C)C(=O)O)n1` (stereo not drawn), the melting point lay within 178 to 180 °C.
As to `Cc1cc2ccccc2n1-c1ccc(OCc2ccccc2)c(F)c1`, the melting point is 70 to 71 °C.
Regarding `COc1nc2cc(C)c(C)c(N)c2nc1OC`, the melting point is 166 to 167 °C.
Regarding `CCCn1nc(-c2ccc(F)cc2)c(-c2ccc(S(C)(=O)=O)cc2)cc1=O`, the melting point is 155 to 157 °C.
`CC(C)CN1C(=O)C(C)(C)C(=O)Nc2ccc(C#N)cc21`: the melting point lay within 219 to 220 °C.
On to `O=S1(=O)NC(Cl)=Nc2ccc(Cl)cc21`, for which the melting point fell in the range of 242 to 244 °C.
